Laboratory results taken from US20250074895A1, “CDK2 INHIBITORS AND METHODS OF MAKING AND USING SAME” (BLUEPRINT MEDICINES CORPORATION, priority 2021, published 2025).

What was measured:
CDK2/Cyclin E = CDK2/Cyclin E (Homo sapiens (Human), UniProt P24941); assay: Biochemical CDK inhibition assay (Caliper mobility shift), CDK2/Cyclin E; details: 1.0 mM ATP or ATP Km, 1.25 nM enzyme, apparent IC50, read-out: CDK2/cyclin E1 IC50
Method: (§1) Inhibitory effects of the compounds of the disclosure were measured in biochemical assays that measure the enzymatic phosphorylation activity of CDK enzyme in complex of Cyclin proteins phosphorylates 7.5 micromolar fluorescently labelled peptide substrate, 5-FAM-QSPKKG-CONH2, (FL-Peptide 18, Perkin Elmer, 760362) in the presence of adenosine-5′-triphosphate (ATP) and varying concentrations of the test compound in 100 mM 2-[4-(2-hydroxyethyl)piperazin-1-yl]ethanesulfonic acid (HEPES), pH 7.5, 10 mM MgCl2, 0.015% Brij-35, 1 mM dithiothreitol (DTT), 1.0% dimethylsulfoxide (DMSO). Assays were performed at 1.0 mM ATP or at ATP Km of the CDK enzymes in complex with Cyclin proteins. Reactions proceeded until between 10% to 20% total peptides were phosphorylated at room temperature (25° C.) and were terminated with 35 mM 2,2′,2″,2′″-(ethane-1,2-diyldinitrilo)tetraacetic acid (EDTA). Product was detected using the Caliper mobility shift detection method where the phosphorylated peptide (product) and substrate were electrophoretically separated and measured. Percent activity was plotted against log concentration of compound and points to generate an apparent IC50. The following CDK enzymes in complex with different cyclin proteins were used in these assays: • CDK1/Cyclin B1, GST-tag (BPS, 40454), 1.5 nM used in the assay • CDK2/Cyclin E (Eurofins, 14-475), 1.25 nM used in the assays
(§2) For inhibitory activity against CDK2/Cyclin […], the following designations are used: ≤10 nM=A; >10-20 nM=B; >20-30 nM=C; >30-100 nM=D and >100=E. For inhibition CDK1/Cyclin B1, GST-tag: ≥500 nM=A; 100-<500 nM=B; <100 nM=C.

CDK1/Cyclin B1, GST-tag = CDK1/Cyclin B1, GST-tag (Homo sapiens (Human), UniProt P06493); assay: Biochemical CDK inhibition assay (Caliper mobility shift), CDK1/Cyclin B1; details: 1.0 mM ATP or ATP Km, 1.5 nM enzyme, apparent IC50
Method: as §1, §2

Chain of CDK1/Cyclin B1, GST-tag (P06493 whole entry): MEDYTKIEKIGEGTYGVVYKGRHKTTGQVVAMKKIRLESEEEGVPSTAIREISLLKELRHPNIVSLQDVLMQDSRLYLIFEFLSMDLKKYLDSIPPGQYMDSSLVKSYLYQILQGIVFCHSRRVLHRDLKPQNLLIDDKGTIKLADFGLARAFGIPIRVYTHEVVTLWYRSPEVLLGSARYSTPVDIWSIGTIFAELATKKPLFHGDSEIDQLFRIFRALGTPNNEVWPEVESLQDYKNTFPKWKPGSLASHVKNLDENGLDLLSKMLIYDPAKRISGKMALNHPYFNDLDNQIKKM
Chain of CDK1/Cyclin B1, GST-tag (P14635 whole entry partner): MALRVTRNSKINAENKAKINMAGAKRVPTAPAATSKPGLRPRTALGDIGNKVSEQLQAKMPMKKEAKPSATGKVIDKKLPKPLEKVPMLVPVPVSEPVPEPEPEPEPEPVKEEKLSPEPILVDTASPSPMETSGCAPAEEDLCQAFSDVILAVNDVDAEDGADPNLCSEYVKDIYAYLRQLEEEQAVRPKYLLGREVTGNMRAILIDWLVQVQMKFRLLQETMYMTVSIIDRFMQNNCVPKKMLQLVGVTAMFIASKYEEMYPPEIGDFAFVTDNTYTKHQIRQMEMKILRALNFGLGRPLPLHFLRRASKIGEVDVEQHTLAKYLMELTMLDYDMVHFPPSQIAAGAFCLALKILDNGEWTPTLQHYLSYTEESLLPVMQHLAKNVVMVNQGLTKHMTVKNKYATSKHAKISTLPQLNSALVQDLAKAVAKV

SMILES | IC50 (CDK2/Cyclin E) [µM] | IC50 (CDK1/Cyclin B1, GST-tag) [µM]
CNC(=O)O[C@@H]1CC[C@H](c2cc(Nc3cncc(OCC4CC4)n3)n[nH]2)C1 [Example 56, (1R,3S)-3-(3-((6-(cyclopropylmethoxy)pyrazin-2-yl)amino)-1H-pyrazol-5-yl)cyclopentyl methylcarbamate] | ≤ 0.01 | < 0.1
CC(C)NC(=O)O[C@@H]1CC[C@H](c2cc(Nc3cnc(C#N)cn3)n[nH]2)C1 [Example 53, (1R,3S)-3-(3-((5-cyanopyrazin-2-yl)amino)-1H-pyrazol-5-yl)cyclopentyl isopropylcarbamate] | ≤ 0.01 | 0.1 to 0.5
CC(C)(O)c1cnc(Nc2cc([C@H]3CC[C@@H](OC(=O)N4CCC4(C)C)C3)[nH]n2)cn1 [Example 50, (1R,3S)-3-(3-((5-(2-hydroxypropan-2-yl)pyrazin-2-yl)amino)-1H-pyrazol-5-yl)cyclopentyl 2,2-dimethylazetidine-1-carboxylate] | ≤ 0.01 | < 0.1
